pIC50, pKi: −log10 of the molar value.
Assays:
Histone deacetylase 1 [1] = target: T1, Histone deacetylase 1 (Homo sapiens, UniProt Q13547); assay: Inhibition of HDAC1 (unknown origin) using RHKK(Ac)AMC as substrate
[2] = Selectivity ratio of IC50 for inhibition of HDAC6 (unknown origin) to IC50 for inhibition of HDAC1 (unknown origin)
[3] = Selectivity ratio of IC50 for inhibition of HDAC4 (unknown origin) to IC50 for inhibition of HDAC1 (unknown origin)
Histone deacetylase 1 [4] = target: T1, Histone deacetylase 1; assay: Binding affinity to HDAC1 (unknown origin) assessed as inhibition constant
Histone deacetylase 1 [5] = target: T1, Histone deacetylase 1; assay: Inhibition of HDAC1 (unknown origin)
[6] = target: T2, Protein deacetylase HDAC6 (Homo sapiens, UniProt Q9UBN7); assay: Inhibition of HDAC6 (unknown origin) using RHKK(Ac)AMC as substrate
T2 sequence (Q9UBN7 whole entry): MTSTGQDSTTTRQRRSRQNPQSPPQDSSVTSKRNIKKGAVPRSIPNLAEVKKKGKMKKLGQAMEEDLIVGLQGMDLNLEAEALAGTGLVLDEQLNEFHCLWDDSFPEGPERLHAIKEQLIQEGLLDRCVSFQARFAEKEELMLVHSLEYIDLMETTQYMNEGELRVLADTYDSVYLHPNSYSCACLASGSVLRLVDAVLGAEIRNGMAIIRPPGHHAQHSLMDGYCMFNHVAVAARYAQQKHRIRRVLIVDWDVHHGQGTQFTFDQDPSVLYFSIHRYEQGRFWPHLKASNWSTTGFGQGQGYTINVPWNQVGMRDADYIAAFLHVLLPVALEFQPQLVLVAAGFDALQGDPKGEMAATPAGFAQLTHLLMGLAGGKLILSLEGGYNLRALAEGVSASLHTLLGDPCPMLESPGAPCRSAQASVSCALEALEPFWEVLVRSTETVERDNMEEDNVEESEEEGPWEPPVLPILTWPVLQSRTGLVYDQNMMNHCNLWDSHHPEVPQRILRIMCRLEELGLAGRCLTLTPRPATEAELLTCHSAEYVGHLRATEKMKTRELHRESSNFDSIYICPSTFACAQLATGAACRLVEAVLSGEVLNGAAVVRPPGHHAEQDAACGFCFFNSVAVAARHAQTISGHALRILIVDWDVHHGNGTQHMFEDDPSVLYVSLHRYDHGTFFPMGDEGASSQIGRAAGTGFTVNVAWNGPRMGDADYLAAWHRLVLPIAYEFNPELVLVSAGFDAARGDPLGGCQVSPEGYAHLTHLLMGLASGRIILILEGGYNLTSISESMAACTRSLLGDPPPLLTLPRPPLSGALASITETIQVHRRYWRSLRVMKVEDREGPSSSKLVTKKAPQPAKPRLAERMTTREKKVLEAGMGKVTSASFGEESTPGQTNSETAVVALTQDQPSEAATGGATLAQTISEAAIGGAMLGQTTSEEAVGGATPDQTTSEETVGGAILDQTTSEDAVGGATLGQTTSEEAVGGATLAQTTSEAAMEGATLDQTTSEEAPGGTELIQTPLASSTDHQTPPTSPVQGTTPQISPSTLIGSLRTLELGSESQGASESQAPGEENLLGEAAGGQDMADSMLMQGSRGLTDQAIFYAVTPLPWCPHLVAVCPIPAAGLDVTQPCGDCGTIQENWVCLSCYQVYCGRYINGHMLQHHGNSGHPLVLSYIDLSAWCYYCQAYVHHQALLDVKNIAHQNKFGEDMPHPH

Histone deacetylase 4 = Histone deacetylase 4 (Homo sapiens, UniProt P56524); assay: Inhibition of HDAC4 (unknown origin) using trifluoroacetyl lysine as substrate
Sequence of Histone deacetylase 4 (P56524 whole entry): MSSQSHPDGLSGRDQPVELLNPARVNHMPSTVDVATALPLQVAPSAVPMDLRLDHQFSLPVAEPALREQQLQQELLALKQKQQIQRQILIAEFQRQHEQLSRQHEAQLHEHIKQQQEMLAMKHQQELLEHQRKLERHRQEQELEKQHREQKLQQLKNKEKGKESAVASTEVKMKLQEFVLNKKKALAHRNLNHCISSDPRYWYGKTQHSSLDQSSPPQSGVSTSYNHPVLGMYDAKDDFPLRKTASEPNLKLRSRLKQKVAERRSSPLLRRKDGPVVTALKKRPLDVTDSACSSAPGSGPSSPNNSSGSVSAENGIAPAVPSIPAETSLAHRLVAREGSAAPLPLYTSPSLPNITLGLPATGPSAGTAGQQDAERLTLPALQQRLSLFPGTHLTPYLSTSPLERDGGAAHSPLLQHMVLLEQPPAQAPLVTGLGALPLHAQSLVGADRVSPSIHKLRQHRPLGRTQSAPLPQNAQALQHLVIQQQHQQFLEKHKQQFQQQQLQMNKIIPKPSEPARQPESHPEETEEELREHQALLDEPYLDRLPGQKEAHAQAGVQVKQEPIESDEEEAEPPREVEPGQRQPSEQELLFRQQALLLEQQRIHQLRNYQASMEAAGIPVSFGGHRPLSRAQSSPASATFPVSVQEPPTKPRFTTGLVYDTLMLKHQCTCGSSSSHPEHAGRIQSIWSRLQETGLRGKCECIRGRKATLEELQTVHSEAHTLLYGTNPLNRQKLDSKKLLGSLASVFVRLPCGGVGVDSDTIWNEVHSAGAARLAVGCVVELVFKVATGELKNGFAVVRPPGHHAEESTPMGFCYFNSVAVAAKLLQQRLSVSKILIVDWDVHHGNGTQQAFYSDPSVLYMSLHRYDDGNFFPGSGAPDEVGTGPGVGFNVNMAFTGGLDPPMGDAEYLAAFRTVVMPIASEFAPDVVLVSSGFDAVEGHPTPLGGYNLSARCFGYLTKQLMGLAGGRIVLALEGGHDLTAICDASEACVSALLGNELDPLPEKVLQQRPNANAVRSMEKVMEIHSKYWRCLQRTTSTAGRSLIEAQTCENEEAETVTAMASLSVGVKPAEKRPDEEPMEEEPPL

T1 sequence (Q13547 whole entry): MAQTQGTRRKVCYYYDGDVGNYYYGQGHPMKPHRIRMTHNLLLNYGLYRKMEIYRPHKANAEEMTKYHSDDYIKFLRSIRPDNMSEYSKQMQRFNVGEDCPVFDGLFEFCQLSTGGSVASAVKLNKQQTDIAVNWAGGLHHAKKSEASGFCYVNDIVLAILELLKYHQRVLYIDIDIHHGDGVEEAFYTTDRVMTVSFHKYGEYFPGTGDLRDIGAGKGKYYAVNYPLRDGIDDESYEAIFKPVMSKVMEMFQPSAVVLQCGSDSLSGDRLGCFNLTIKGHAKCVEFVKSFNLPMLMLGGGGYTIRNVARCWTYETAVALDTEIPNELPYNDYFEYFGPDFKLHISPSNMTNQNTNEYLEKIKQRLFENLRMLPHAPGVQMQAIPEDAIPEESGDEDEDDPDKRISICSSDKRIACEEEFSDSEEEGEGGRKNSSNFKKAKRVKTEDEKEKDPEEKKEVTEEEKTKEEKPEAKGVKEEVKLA

| SMILES | pIC50 (Histone deacetylase 1 [1]) | pKi (Histone deacetylase 1 [4]) | further results |
| --- | --- | --- | --- |
| C[C@@H](O)C(=O)CCCCC[C@@H]1NC(=O)[C@H]2CCCN2C(=O)[C@H](Cc2ccccc2)NC(=O)C(C)(C)NC1=O | 7.52 | – | – |
| CC1(C)NC(=O)[C@H](CCCCCC(=O)[C@H](O)CO)NC(=O)[C@H]2CCCN2C(=O)[C@H](Cc2ccccc2)NC1=O [listing 1 of 2 here] | – | – | Ratio IC50 [2]: 2200; Ratio IC50 [3]: 7000 |
| CC1(C)NC(=O)[C@H](CCCCCC(=O)[C@H](O)CO)NC(=O)[C@H]2CCCN2C(=O)[C@H](Cc2ccccc2)NC1=O (stereo in doubt; form 1) | – | 5.25 | – |
| CC[C@]1(C)NC(=O)[C@H](CCCCCC(=O)[C@@H](C)O)NC(=O)[C@H]2CCCN2C(=O)[C@H](Cc2ccc(O)cc2)NC1=O | – | – | pIC50 (Histone deacetylase 1 [5]): 7.67 |
| CC1(C)NC(=O)[C@H](CCCCCC(=O)[C@@H]2CO2)NC(=O)[C@H]2CCCN2C(=O)[C@H](Cc2ccccc2)NC1=O | 9.82 | – | pIC50 [6]: 5.96; pIC50 (Histone deacetylase 1 [5]): 5.96 |
| C[C@H](O)C(=O)CCCCC[C@@H]1NC(=O)[C@H]2CCCN2C(=O)[C@H](Cc2ccccc2)NC(=O)C(C)(C)NC1=O | 6.48 | – | – |

More lines, main results first:

| pIC50 (Histone deacetylase 1 [1]) | pKi (Histone deacetylase 1 [4]) | SMILES | further results |
| --- | --- | --- | --- |
| – | 4.80 | CC1(C)NC(=O)[C@H](CCCCCC(=O)[C@H](O)CO)NC(=O)[C@H]2CCCN2C(=O)[C@H](Cc2ccccc2)NC1=O (stereo in doubt; form 2) | – |
| – | 4.95 | CC1(C)NC(=O)[C@H](CCCCCC(=O)[C@@H](O)CO)NC(=O)[C@H]2CCCN2C(=O)[C@H](Cc2ccccc2)NC1=O (stereo in doubt; form 1) | – |
| – | 4.66 | CC1(C)NC(=O)[C@H](CCCCCC(=O)[C@@H](O)CO)NC(=O)[C@H]2CCCN2C(=O)[C@H](Cc2ccccc2)NC1=O (stereo in doubt; form 2) | – |
| 6.84 | – | CC1(C)NC(=O)[C@H](CCCCCC(=O)[C@H](O)CO)NC(=O)[C@H]2CCCN2C(=O)[C@H](Cc2ccccc2)NC1=O [listing 2 of 2 here] | pIC50 [6]: 3.50; pIC50 (Histone deacetylase 4): 3.00 |

— ChEMBL document CHEMBL6078697, “Synthesis and Evaluation of 9-epi-Koshidacin B as Selective Inhibitor of Histone Deacetylase 1” (J Nat Prod, 2024)
